Earlier results, collected in patent publication US8911966B2, “Efficient astaxanthin production strains derived from Haematococcus pluvialis” (Cognis IP Management GmbH, priority 2007, dated 2014).

Conditions: versus α-tocopherol

## CC1=C(/C=C/C(C)=C/C=C/C(C)=C/C=C/C=C(C)/C=C/C=C(C)/C=C/C2=C(C)C(=O)C(O)CC2(C)C)C(C)(C)CC(O)C1=O (stereo not drawn) [astaxanthin, 3,3′-dihydroxy-β,β-carotene-4,4′-dione]
  antioxidant activities relative to α-tocopherol (vitamin E): over 500 times
